Test results published in ChEMBL document CHEMBL1146212, “Glyceraldehyde 3-phosphate dehydrogenase is a cellular target of the insulin mimic demethylasterriquinone B1” (J Med Chem, 2007).

Legend:
[1] = target: Glyceraldehyde-3-phosphate dehydrogenase (Oryctolagus cuniculus, UniProt P46406); experiment: Binding affinity to GAPDH in rabbit muscle
[2] = target: Glyceraldehyde-3-phosphate dehydrogenase (Homo sapiens, UniProt P04406); experiment: Binding affinity to GAPDH in human erythrocytes; type: cell-based
Sequence of Glyceraldehyde-3-phosphate dehydrogenase (Homo sapiens, UniProt P04406) (P04406 whole entry): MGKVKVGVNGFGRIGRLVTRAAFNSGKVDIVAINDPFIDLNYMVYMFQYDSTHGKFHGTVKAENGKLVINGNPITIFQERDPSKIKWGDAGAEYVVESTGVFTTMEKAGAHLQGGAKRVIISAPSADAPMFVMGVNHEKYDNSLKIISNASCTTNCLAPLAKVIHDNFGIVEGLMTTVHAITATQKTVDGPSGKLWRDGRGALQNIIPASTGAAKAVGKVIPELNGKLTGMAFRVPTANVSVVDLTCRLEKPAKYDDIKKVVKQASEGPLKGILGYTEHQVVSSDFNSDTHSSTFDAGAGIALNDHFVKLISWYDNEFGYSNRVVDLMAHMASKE

Sequence of Glyceraldehyde-3-phosphate dehydrogenase (Oryctolagus cuniculus, UniProt P46406) (P46406 whole entry): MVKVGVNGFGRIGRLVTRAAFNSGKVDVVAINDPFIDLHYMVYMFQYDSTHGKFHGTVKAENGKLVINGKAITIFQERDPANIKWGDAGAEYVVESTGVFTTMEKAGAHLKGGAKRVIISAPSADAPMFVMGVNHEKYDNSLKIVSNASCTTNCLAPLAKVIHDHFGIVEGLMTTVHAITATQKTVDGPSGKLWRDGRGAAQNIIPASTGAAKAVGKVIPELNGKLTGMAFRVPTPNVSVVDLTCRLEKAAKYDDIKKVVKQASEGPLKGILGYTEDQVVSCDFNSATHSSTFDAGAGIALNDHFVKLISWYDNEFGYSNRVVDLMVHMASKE

| SMILES | IC50 [1] [µM] | Kd [2] [µM] |
| --- | --- | --- |
| C=CC(C)(C)c1[nH]c2ccccc2c1C1=C(O)C(O)=C(c2c[nH]c3c(CC=C(C)C)cccc23)C(=O)C1=O | 15 | 7.2 |
| CC(C)=CCc1cccc2c(C3=C(O)C(=O)C(c4c(C)[nH]c5ccc(NC(=O)CCCCCNC(=O)CCCCC6SCC7NC(=O)NC76)cc45)=C(O)C3=O)c[nH]c12 (stereo not drawn) | – | 7.5 |
